Test results from patent publication US12152012B2, “BRAG2 inhibitors and applications thereof” (CENTRE NATIONAL DE LA RECHERCHE SCIENTIFIQUE, priority 2018, dated 2024).

Experiments:
Experiment in all cases: Nucleotide exchange fluorescence kinetics in solution, Sec7 domain with truncated Arf1
Assay type in all cases: biochemical
Conditions in all cases: 50 μM, no membranes
[1] = target: T1, Sec7 domain of ARNO (Homo sapiens, UniProt Q99418)
T1 construct: ARNO^Sec7 (50-256), BIG1^Sec7 (691-889); made in house
T1 sequence (Q99418 50-256): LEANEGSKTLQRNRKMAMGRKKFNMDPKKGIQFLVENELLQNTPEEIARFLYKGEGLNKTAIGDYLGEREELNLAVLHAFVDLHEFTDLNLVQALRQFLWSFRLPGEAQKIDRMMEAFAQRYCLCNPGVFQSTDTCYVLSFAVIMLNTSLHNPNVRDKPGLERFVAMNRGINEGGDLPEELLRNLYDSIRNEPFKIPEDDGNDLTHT
Protocol: (§1) The effect of Bragsin1 on the GEF efficiency of representative human ArfGEFs was evaluated by fluorescence kinetics using highly purified recombinant Arf GTPases and ArfGEFs. In a first series of assays, the Sec7 domains of BIG1, a Golgi ArfGEF, and of ARNO, EFA6a and BRAG2, which function at the plasma membrane, were used. When tested in solution, Bragsin1 had no effect on the activation of Arf1 by any of these Sec7 domains (FIGS. 2a and 14). Separately, we reconstituted the activation of myristoylated Arf1 by the same ArfGEFs on liposomes using ArfGEF constructs that contain a membrane-binding domain (DCB-HUS domain for BIG1, PH domains for the other GEFs). […] BRAG2 activates several Arf isoforms, including the plasma membrane-located Arf6 isoform. […] Bragsin1 and Bragsin2 have the same IC50 towards BRAG2 ([…]) according to dose-response analysis, confirming that Bragsin1 and Bragsin2 can be used interchangeably (FIG. 2d). The specific inhibition of BRAG2 by Bragsin in vitro predicts that BRAG2 silencing by siRNA should yield the same phenotype as treatment by the small molecule. Silencing of BRAG2 induced the redistribution of TGN46 into tubular or punctate structures, which phenocopied the effects induced by Bragsin (FIGS. 2e, 17 and 18). […] Silencing of ARNO, which is located at the plasma membrane, had no effect on TGN46 distribution. Overexpression of BRAG2-mCherry rescued the dispersion of the TGN46 structure induced by Bragsin, which is consistent with the silencing experiments (FIG. 2f). Bragsin is a specific inhibitor of the ArfGEF BRAG2 in vitro and in cells according to these experiments. These oexperiments identify a mechanism of inhibition that requires the membrane to manifests itself. […]
(§2) Nucleotide exchange kinetics were monitored by tryptophan fluorescence with excitation/emission wavelengths of 292/340 nm using a Cary Eclipse fluorimeter (Varian) at 37° C. and under continuous stirring as described in ^50,51. For specificity assays, 50 μM of Bragsin1 or 0.25% DMSO were incubated for 2 min at 37° C. in HKM buffer (50 mM HEPES pH 7.4, 120 mM potassium acetate, 1 mM MgCl2 and 1 mM DTT) with either 1 μM of N-terminally truncated Arf-GDP and 100 nM of indicated Sec7 domain (in solution) or 0.4 μM of ^myrArf1 in the presence of 100 μM of liposomes and 2 to 100 nM of ArfGEFs as described in (Benabdi, S. et al. Biochemistry 56, 5125-5133 (2017) and Peurois, F. et al. Biochem J 474, 1259-1272 (2017). Nucleotide exchange rates (kobs) were determined from monoexponential fits and means are given as the percentage of control activity±SD. […]

[2] = target: T2, Sec7 domain of BIG1 (Homo sapiens, UniProt Q9Y6D6)
T2 construct: BIG1^Sec7 (691-889), BIG1^DcbHusSec7 (2-888); made in house
T2 sequence (Q9Y6D6 691-889): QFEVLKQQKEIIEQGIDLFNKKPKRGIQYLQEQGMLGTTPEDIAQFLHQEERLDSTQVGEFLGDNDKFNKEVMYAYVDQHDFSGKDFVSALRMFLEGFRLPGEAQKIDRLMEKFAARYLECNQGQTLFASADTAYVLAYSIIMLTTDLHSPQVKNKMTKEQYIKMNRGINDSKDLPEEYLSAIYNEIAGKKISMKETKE
Protocol: as §1, §2

[3] = target: T3, Sec7 domain of BRAG2 (Homo sapiens, UniProt Q6DN90)
T3 construct: human BRAG2^Sec7 (390-594) and BRAG2^Sec7PH (390-811); made in house
Protocol: as §1, §2

[4] = target: T4, Sec7 domain of EFA6a (Homo sapiens, UniProt A5PKW4)
T4 construct: human EFA6^Sec7 (527-727) and EFA6^Sec7PHCt (527-1024); made in house
Protocol: as §1, §2

T4 sequence (A5PKW4 527-727): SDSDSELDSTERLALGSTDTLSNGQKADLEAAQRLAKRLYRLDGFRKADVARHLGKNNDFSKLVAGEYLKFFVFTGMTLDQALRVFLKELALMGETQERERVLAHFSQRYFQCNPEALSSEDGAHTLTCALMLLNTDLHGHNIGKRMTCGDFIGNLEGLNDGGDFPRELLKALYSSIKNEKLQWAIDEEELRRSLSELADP
T3 sequence (Q6DN90 512-716): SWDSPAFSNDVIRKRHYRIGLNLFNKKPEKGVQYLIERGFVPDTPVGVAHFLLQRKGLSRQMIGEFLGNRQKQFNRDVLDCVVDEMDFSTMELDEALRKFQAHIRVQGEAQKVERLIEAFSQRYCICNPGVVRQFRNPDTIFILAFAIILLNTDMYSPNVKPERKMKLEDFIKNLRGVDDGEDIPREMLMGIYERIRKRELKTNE

Effect on activation of Arf1 by Sec7 domain in solution [1]: no effect
Effect on activation of Arf1 by Sec7 domain in solution [2]: no effect
Effect on activation of Arf1 by Sec7 domain in solution [3]: no effect
Effect on activation of Arf1 by Sec7 domain in solution [4]: no effect
SMILES: Cc1ccc2oc(C(F)(F)F)cc(=O)c2c1[N+](=O)[O-] [Bragsin1, 6-methyl-5-nitro-2-(trifluoromethyl)-4H-chromen-4-one]
